Reference: PubChem BioAssay (NCI)
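Method: 48-hour compound exposure of cells in 96-well plates, five concentrations, linear interpolation of endpoints. At the TGI there is no net growth.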

Key:
Assay in all cases: NCI tumour cell line growth inhibition, 48 h
ACHN renal = test system: ACHN renal
COLO 205 colon = test system: COLO 205 colon
HT29 colon = test system: HT29 colon
MDA-MB-435 = test system: MDA-MB-435
MOLT-4 leukemia = test system: MOLT-4 leukemia
NCI-H226 lung = test system: NCI-H226 lung
NCI-H522 lung = test system: NCI-H522 lung
SK-MEL-28 melanoma = test system: SK-MEL-28 melanoma
SN12C renal = test system: SN12C renal
K-562 leukemia = test system: K-562 leukemia

Compound `O=C(/C=C/c1ccc(O)c(O)c1)c1cc(O)cc(O)c1` has a TGI (ACHN renal) of 28.9 µM, a TGI (COLO 205 colon) of 31.1 µM and a TGI (HT29 colon) of 39 µM. The TGI (MDA-MB-435) was 20.3 µM, the TGI (MOLT-4 leukemia) was > 100 µM and the TGI (NCI-H226 lung) was 51.5 µM. The TGI (NCI-H522 lung) was 3.73 µM, the TGI (SK-MEL-28 melanoma) was 31.2 µM and the TGI (SN12C renal) was 26.2 µM.
`O=c1oc2cc(O)ccc2c(O)c1C(c1cccnc1)c1c(O)c2ccc(O)cc2oc1=O` was tested, and the TGI (ACHN renal) was > 100 µM, the TGI (COLO 205 colon) was > 100 µM and the TGI (HT29 colon) was > 100 µM. The TGI (K-562 leukemia) was > 100 µM, the TGI (MDA-MB-435) was > 100 µM and the TGI (MOLT-4 leukemia) was > 100 µM. For the same compound, the TGI (NCI-H226 lung) was > 100 µM, the TGI (NCI-H522 lung) was > 100 µM and the TGI (SK-MEL-28 melanoma) was > 100 µM. The TGI (SN12C renal) was > 100 µM.
For `CN(C)c1ccccc1CN1CCCN(Cc2ccccc2N(C)C)C1c1ccncc1`, the TGI (ACHN renal) was 99.2 µM, the TGI (COLO 205 colon) was 30.3 µM and the TGI (HT29 colon) was 26.5 µM. For the same compound, the TGI (K-562 leukemia) was 23.9 µM, the TGI (MDA-MB-435) was 20.2 µM and the TGI (MOLT-4 leukemia) was 43.6 µM. For the same compound, the TGI (NCI-H226 lung) was 38.7 µM, the TGI (NCI-H522 lung) was 32.5 µM and the TGI (SK-MEL-28 melanoma) was 23.7 µM. For the same compound, the TGI (SN12C renal) was 62.2 µM.
In the case of `CCOC(=O)NC(NC1=NCCS1)(C(=O)OCC)C(F)(F)F` (configuration not stated), the TGI (ACHN renal) is reported as > 100 µM, the TGI (COLO 205 colon) is reported as > 100 µM and the TGI (HT29 colon) is reported as > 100 µM. For the same compound, the TGI (K-562 leukemia) was > 100 µM, the TGI (MDA-MB-435) was > 100 µM and the TGI (MOLT-4 leukemia) was > 100 µM. The TGI (NCI-H226 lung) was > 100 µM, the TGI (NCI-H522 lung) was > 100 µM and the TGI (SK-MEL-28 melanoma) was > 100 µM. The TGI (SN12C renal) was > 100 µM.
In the case of `COC1(OC)CC(CO)(CNc2cc(Cl)nc(N)n2)C1`, the TGI (ACHN renal) is reported as > 100 µM, the TGI (COLO 205 colon) is reported as > 100 µM and the TGI (HT29 colon) is reported as > 100 µM. The TGI (K-562 leukemia) was > 100 µM, the TGI (MDA-MB-435) was > 100 µM and the TGI (MOLT-4 leukemia) was > 100 µM. The TGI (NCI-H226 lung) was > 100 µM, the TGI (NCI-H522 lung) was > 100 µM and the TGI (SK-MEL-28 melanoma) was > 100 µM. The TGI (SN12C renal) was > 100 µM.
In the case of `CCSc1cc(=O)n(C)c(=O)n1C`, the TGI (ACHN renal) is reported as > 100 µM, the TGI (COLO 205 colon) is reported as > 100 µM and the TGI (HT29 colon) is reported as > 100 µM. The TGI (MDA-MB-435) was > 100 µM, the TGI (MOLT-4 leukemia) was > 100 µM and the TGI (NCI-H226 lung) was > 100 µM. The TGI (NCI-H522 lung) was > 100 µM, the TGI (SK-MEL-28 melanoma) was > 100 µM and the TGI (SN12C renal) was > 100 µM.
`C/C(=C/C(=O)Nn1c(Cc2ccccc2)n[nH]c1=O)C(=O)O` was tested, and the TGI (ACHN renal) was > 100 µM, the TGI (COLO 205 colon) was > 100 µM and the TGI (HT29 colon) was > 100 µM. For the same compound, the TGI (K-562 leukemia) was > 100 µM, the TGI (MDA-MB-435) was > 100 µM and the TGI (MOLT-4 leukemia) was > 100 µM. The TGI (NCI-H226 lung) was > 100 µM, the TGI (NCI-H522 lung) was > 100 µM and the TGI (SK-MEL-28 melanoma) was > 100 µM. The TGI (SN12C renal) was > 100 µM.
For `Cn1c2ccccc2c2c(=O)[nH]c(=O)[nH]c21`, the TGI (ACHN renal) was > 100 µM, the TGI (COLO 205 colon) was > 100 µM and the TGI (HT29 colon) was > 100 µM. The TGI (K-562 leukemia) was > 100 µM, the TGI (MDA-MB-435) was > 100 µM and the TGI (MOLT-4 leukemia) was > 100 µM. The TGI (NCI-H226 lung) was > 100 µM, the TGI (NCI-H522 lung) was > 100 µM and the TGI (SK-MEL-28 melanoma) was > 100 µM. For the same compound, the TGI (SN12C renal) was > 100 µM.
In the case of `O=C(O)c1cnc2[nH]ccn2c1=O`, the TGI (ACHN renal) is reported as > 100 µM, the TGI (COLO 205 colon) is reported as > 100 µM and the TGI (HT29 colon) is reported as > 100 µM. The TGI (K-562 leukemia) was > 100 µM, the TGI (MDA-MB-435) was > 100 µM and the TGI (MOLT-4 leukemia) was > 100 µM. The TGI (NCI-H226 lung) was > 100 µM, the TGI (SK-MEL-28 melanoma) was > 100 µM and the TGI (SN12C renal) was > 100 µM.
With `CCOc1ccc(/C=N/[N+](C)(C)C)cc1OCC` the TGI (ACHN renal) was > 10 µM, the TGI (COLO 205 colon) was > 10 µM and the TGI (HT29 colon) was > 10 µM. For the same compound, the TGI (K-562 leukemia) was > 10 µM, the TGI (MDA-MB-435) was > 10 µM and the TGI (MOLT-4 leukemia) was > 10 µM. For the same compound, the TGI (NCI-H522 lung) was > 10 µM, the TGI (SK-MEL-28 melanoma) was > 10 µM and the TGI (SN12C renal) was > 10 µM.
`CSCCCNC(=O)c1csc(-c2csc(C(CNC(=O)OC(C)(C)C)CNC(=O)OC(C)(C)C)n2)n1` was tested, and the TGI (ACHN renal) was > 100 µM, the TGI (COLO 205 colon) was > 100 µM and the TGI (K-562 leukemia) was > 100 µM. For the same compound, the TGI (MDA-MB-435) was > 100 µM, the TGI (MOLT-4 leukemia) was 43.9 µM and the TGI (NCI-H226 lung) was > 100 µM. The TGI (NCI-H522 lung) was 94.5 µM and the TGI (SN12C renal) was > 100 µM.
For `Cc1cccnc1/N=C/c1c(O)n(C)c(=O)[nH]c1=O`, the TGI (ACHN renal) was > 100 µM, the TGI (COLO 205 colon) was > 100 µM and the TGI (HT29 colon) was > 100 µM. The TGI (MDA-MB-435) was > 100 µM, the TGI (MOLT-4 leukemia) was > 100 µM and the TGI (NCI-H226 lung) was > 100 µM. The TGI (NCI-H522 lung) was > 100 µM, the TGI (SK-MEL-28 melanoma) was > 100 µM and the TGI (SN12C renal) was > 100 µM.
In the case of `COc1ccc2sc(-n3nc4ccccc4c3Nc3nc4ccc(OC)cc4s3)nc2c1`, the TGI (ACHN renal) is reported as 11.2 µM, the TGI (COLO 205 colon) is reported as > 63.9 µM and the TGI (HT29 colon) is reported as 14.7 µM. The TGI (K-562 leukemia) was > 38.9 µM, the TGI (MDA-MB-435) was 12 µM and the TGI (NCI-H226 lung) was 13.9 µM. It also gave a TGI (NCI-H522 lung) of 17.2 µM, a TGI (SK-MEL-28 melanoma) of 26.5 µM and a TGI (SN12C renal) of 18.5 µM.
With `CSc1c(C#N)c(N)nc2c(N=Nc3ccc(Cl)cc3)c(N)nn12` the TGI (ACHN renal) was 12.4 µM, the TGI (COLO 205 colon) was 30.3 µM and the TGI (HT29 colon) was 8.38 µM. For the same compound, the TGI (K-562 leukemia) was 4.75 µM, the TGI (MDA-MB-435) was 28.1 µM and the TGI (MOLT-4 leukemia) was 5.47 µM. For the same compound, the TGI (NCI-H226 lung) was 37.9 µM, the TGI (NCI-H522 lung) was 22.5 µM and the TGI (SK-MEL-28 melanoma) was 7.57 µM. The TGI (SN12C renal) was 8.1 µM.
For `CCOC(=O)C(C(=S)Nc1ccccc1)c1nn2c(=O)cc(C)nc2s1` (configuration not stated), the TGI (ACHN renal) was 66.6 µM, the TGI (COLO 205 colon) was 39.5 µM and the TGI (HT29 colon) was 41.4 µM. For the same compound, the TGI (K-562 leukemia) was 49 µM, the TGI (MDA-MB-435) was 47.7 µM and the TGI (MOLT-4 leukemia) was 69.1 µM. It also gave a TGI (NCI-H226 lung) of 70 µM, a TGI (NCI-H522 lung) of 53.9 µM and a TGI (SK-MEL-28 melanoma) of 53.4 µM. For the same compound, the TGI (SN12C renal) was > 100 µM.
In the case of `CCN1CCN(c2nc3ccc([N+](=O)[O-])cc3nc2C(=O)c2ccccc2)CC1`, the TGI (ACHN renal) is reported as 29.3 µM, the TGI (COLO 205 colon) is reported as 30 µM and the TGI (K-562 leukemia) is reported as > 100 µM. The TGI (MDA-MB-435) was 30.2 µM, the TGI (MOLT-4 leukemia) was > 100 µM and the TGI (NCI-H226 lung) was 33.3 µM. For the same compound, the TGI (NCI-H522 lung) was 10.3 µM and the TGI (SN12C renal) was 30.9 µM.
`N#Cc1c(N)sc2c1-c1ccccc1OC2` was tested, and the TGI (ACHN renal) was > 100 µM, the TGI (COLO 205 colon) was > 100 µM and the TGI (HT29 colon) was > 100 µM. For the same compound, the TGI (K-562 leukemia) was > 100 µM, the TGI (MDA-MB-435) was > 100 µM and the TGI (MOLT-4 leukemia) was > 100 µM. For the same compound, the TGI (NCI-H226 lung) was > 100 µM, the TGI (SK-MEL-28 melanoma) was > 100 µM and the TGI (SN12C renal) was 68.6 µM.
With `COC(=O)/C=C/c1ccc2c(c1)CC1(C2)Cc2cc3c(cc2C1=O)CCC3` (configuration not stated) the TGI (ACHN renal) was > 100 µM, the TGI (COLO 205 colon) was > 100 µM and the TGI (K-562 leukemia) was > 100 µM. For the same compound, the TGI (MDA-MB-435) was > 100 µM, the TGI (MOLT-4 leukemia) was > 100 µM and the TGI (NCI-H226 lung) was > 100 µM. The TGI (NCI-H522 lung) was > 100 µM, the TGI (SK-MEL-28 melanoma) was > 100 µM and the TGI (SN12C renal) was > 100 µM.
For `O=C(/C=C/c1ccc(/C=C/C(=O)c2ccc(O)cc2)cc1)c1ccc(O)cc1`, the TGI (ACHN renal) was > 100 µM, the TGI (COLO 205 colon) was > 100 µM and the TGI (HT29 colon) was > 100 µM. The TGI (K-562 leukemia) was > 100 µM, the TGI (MDA-MB-435) was > 100 µM and the TGI (MOLT-4 leukemia) was > 100 µM. For the same compound, the TGI (NCI-H226 lung) was > 100 µM, the TGI (SK-MEL-28 melanoma) was > 100 µM and the TGI (SN12C renal) was > 100 µM.
For `O=C1CCC(=O)N1n1c(Cc2ccc(Cl)cc2)n[nH]c1=O`, the TGI (ACHN renal) was > 100 µM, the TGI (COLO 205 colon) was > 100 µM and the TGI (HT29 colon) was > 100 µM. For the same compound, the TGI (K-562 leukemia) was > 100 µM, the TGI (MDA-MB-435) was > 100 µM and the TGI (MOLT-4 leukemia) was > 100 µM. The TGI (NCI-H226 lung) was > 100 µM, the TGI (NCI-H522 lung) was > 100 µM and the TGI (SK-MEL-28 melanoma) was > 100 µM. The TGI (SN12C renal) was > 100 µM.
For `COc1ccc(/C=C2\N=C(c3ccccc3)N(N=C3NC(=O)CC(=O)N3)C2=O)cc1`, the TGI (ACHN renal) was > 100 µM, the TGI (COLO 205 colon) was > 100 µM and the TGI (HT29 colon) was > 100 µM. For the same compound, the TGI (K-562 leukemia) was > 100 µM, the TGI (MDA-MB-435) was > 100 µM and the TGI (MOLT-4 leukemia) was > 100 µM. For the same compound, the TGI (NCI-H226 lung) was > 100 µM, the TGI (NCI-H522 lung) was > 100 µM and the TGI (SK-MEL-28 melanoma) was > 100 µM. For the same compound, the TGI (SN12C renal) was > 100 µM.
